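Each compound was tested at five concentrations against cells in 96-well plates for 48 hours. At the GI50, growth is halved. The concentration for full growth arrest is given as TGI.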
Columns and labels:
Assay in all cases: growth of human tumour cells (NCI), 48 h
SW-620 colon = system: SW-620 colon
T-47D breast = system: T-47D breast
MALME-3M melanoma = system: MALME-3M melanoma
NCI-H226 lung = system: NCI-H226 lung
IGROV1 ovarian = system: IGROV1 ovarian
786-0 renal = system: 786-0 renal
HOP-92 NSCLC = system: HOP-92 NSCLC
SK-MEL-28 melanoma = system: SK-MEL-28 melanoma
PC-3 prostate = system: PC-3 prostate
A498 renal = system: A498 renal
MCF7 breast = system: MCF7 breast
OVCAR-3 ovarian = system: OVCAR-3 ovarian
SNB-19 CNS = system: SNB-19 CNS
HT29 colon = system: HT29 colon
NCI-H23 lung = system: NCI-H23 lung
HOP-62 NSCLC = system: HOP-62 NSCLC
CCRF-CEM leukemia = system: CCRF-CEM leukemia
OVCAR-8 ovarian = system: OVCAR-8 ovarian
RPMI-8226 leukemia = system: RPMI-8226 leukemia
HCT-116 colon = system: HCT-116 colon
BT-549 breast = system: BT-549 breast
UACC-62 melanoma = system: UACC-62 melanoma
HL-60(TB) leukemia = system: HL-60(TB) leukemia
NCI/ADR-RES ovarian = system: NCI/ADR-RES ovarian
SF-539 CNS = system: SF-539 CNS
UACC-257 melanoma = system: UACC-257 melanoma
LOX IMVI melanoma = system: LOX IMVI melanoma
HCC-2998 colon = system: HCC-2998 colon
SK-MEL-2 melanoma = system: SK-MEL-2 melanoma

CC(=O)OC[C@@]12Oc3c(cccc3-c3ccc(O)c4c3O[C@]3(COC(C)=O)C(=C4O)C(=O)C[C@H](C)[C@@H]3OC(C)=O)C(O)=C1C(=O)C[C@H](C)[C@@H]2OC(C)=O
TGI (SW-620 colon): > 100 µM | GI50 (T-47D breast): 18.5 µM | TGI (T-47D breast): > 100 µM | GI50 (MALME-3M melanoma): 6.88 µM | TGI (MALME-3M melanoma): 56.5 µM | GI50 (NCI-H226 lung): 20.2 µM | TGI (NCI-H226 lung): 63.5 µM | GI50 (IGROV1 ovarian): 7.12 µM | TGI (IGROV1 ovarian): > 100 µM | GI50 (786-0 renal): 33.5 µM | TGI (786-0 renal): > 100 µM | GI50 (HOP-92 NSCLC): 5 µM | TGI (HOP-92 NSCLC): 38.5 µM | GI50 (SK-MEL-28 melanoma): 6.1 µM | TGI (SK-MEL-28 melanoma): > 100 µM | GI50 (PC-3 prostate): 15.3 µM | TGI (PC-3 prostate): > 100 µM | GI50 (A498 renal): 3.3 µM | TGI (A498 renal): 48.4 µM | GI50 (MCF7 breast): 26.1 µM | TGI (MCF7 breast): > 100 µM | GI50 (OVCAR-3 ovarian): 13.9 µM | TGI (OVCAR-3 ovarian): > 100 µM | GI50 (SNB-19 CNS): 15.7 µM | TGI (SNB-19 CNS): > 100 µM | GI50 (HT29 colon): 7.87 µM | TGI (HT29 colon): > 100 µM | GI50 (NCI-H23 lung): 10.6 µM | TGI (NCI-H23 lung): > 100 µM | GI50 (HOP-62 NSCLC): 4.19 µM | TGI (HOP-62 NSCLC): > 100 µM | GI50 (CCRF-CEM leukemia): 5.92 µM | TGI (CCRF-CEM leukemia): > 100 µM | GI50 (OVCAR-8 ovarian): 6.39 µM | TGI (OVCAR-8 ovarian): > 100 µM | GI50 (RPMI-8226 leukemia): 6.08 µM | TGI (RPMI-8226 leukemia): 46.1 µM | GI50 (HCT-116 colon): 28.3 µM | TGI (HCT-116 colon): > 100 µM | GI50 (BT-549 breast): 4.54 µM | TGI (BT-549 breast): > 100 µM | GI50 (UACC-62 melanoma): 5.75 µM | TGI (UACC-62 melanoma): > 100 µM | GI50 (HL-60(TB) leukemia): 17.7 µM | TGI (HL-60(TB) leukemia): 56.6 µM | GI50 (NCI/ADR-RES ovarian): 32.7 µM | TGI (NCI/ADR-RES ovarian): > 100 µM | GI50 (SF-539 CNS): 3.97 µM | TGI (SF-539 CNS): > 100 µM | GI50 (UACC-257 melanoma): 3.4 µM | TGI (UACC-257 melanoma): 31.4 µM | GI50 (LOX IMVI melanoma): 3.53 µM | TGI (LOX IMVI melanoma): 12.9 µM | GI50 (HCC-2998 colon): 6.13 µM | TGI (HCC-2998 colon): > 100 µM | GI50 (SK-MEL-2 melanoma): 14.7 µM | TGI (SK-MEL-2 melanoma): 63.9 µM

Source: PubChem BioAssay (NCI)
